Where two headings read alike, the source gives them in different places. Ends that are not written are not given here.
B1: Renin (protein, UniProt P00797 67-406, looked up)
Renin: LTLGNTTSSVILTNYMDTQYYGEIGIGTPPQTFKVVFDTGSSNVWVPSSKCSRLYTACVYHKLFDASDSSSYKHNGTELTLRYSTGTVSGFLSQDIITVGGITVTQMFGEVTEMPALPFMLAEFDGVVGMGFIEQAIGRVTPIFDNIISQGVLKEDVFSFYYNRDSENSQSLGGQIVLGGSDPQHYEGNFHYINLIKTGVWQIQMKGVSVGSSTLLCEDGCLALVDTGASYISGSTSSIEKLMEALGAKKRLFDYVVKCNEGPTLPDISFHLGGKEYTLTSADYVFQESYSSKKLCTLAIHAMDIPPPTGPTWALGATFIRKFYTEFDRRNNRIGFALAR

How the values were obtained:
[1] = tested on: polyclonal anti-ouabain antisera; assay type: binding, rabbit
Procedure: Polyclonal anti-ouabain antisera was obtained from the immunized rabbits by collecting blood from the central ear artery, allowing the blood to clot for 2 hr at room temperature, centrifuging the clotted blood at 1000 ×g for 10 min, and removing the polyclonal anti-ouabain antisera.
The polyclonal antisera was extensively characterized by testing the degree to which it cross-reacted with (1) other substances known to be present in human body fluids and tissues, and (2) cardiotonic steroids closely related to ouabain but not known to be present in human body fluids and tissues.

[2] = target: T1, (Na^+ +K^+)ATPase (Canis lupus familiaris, UniProt P50997); assay: Competition for ^3 H-ouabain binding to purified (Na^+ +K^+)ATPase; design: species or system dog; settings: type II conditions
T1 construct: (Na^+ +K^+)ATPase was purified from the outer medulla of dog kidney; from tissue; host or cells: dog kidney outer medulla, purified membrane enzyme
Procedure: (§1) More specifically, (Na^+ +K^+)ATPase was purified from the outer medulla of dog kidney using the angle rotor procedure (Jorgensen, P.L., Biochim. Biophys. Acta, 356:36-52 (1974)) and stored frozen at -60° C. at 1.0 mg/ml in 25 mM imidazole-HCl (pH 7.5) and 1.0 mM EDTA, in small aliquots. (Na^+ +K^+)ATPase activity was determined at 37° C. from rate measurements in 1.0 ml of coupled optical assay mixture comprising 20 mM KCl, 100 mM NaCl, 4.5 mM MgSO4, 5.0 mM EGTA, 3.0 mM ATP-Na2, 1.2 mM phosphoenol-pyruvate-tricyclohexylammonium, 0.3 mM NADH, 100 mM TES-Tris (ph 7.4), 5.0 units of lactate dehydrogenase, and 5.0 units of pyruvate kinase (Hamlyn, J.M. et al, Nature, 300:650-652 (1982)). (Na^+ +K^+)ATPase activity was 99% ouabain-inhibitable with activities of 10-18 μmol/min/mg of membrane protein. Maximally effective concentrations of digitalis-like activity had no effect on the enzymatic components of the coupled optical assay as determined by inspection of rates in response to addition of 20-50 μM ADP. The maximal capacity of the coupled optical assay was at least 500-2000 fold greater than the typical maximal hydrolytic rate of the (Na^+ +K^+)ATPase and was not rate limiting under any assay condition described herein.
Competition for ^3 H-ouabain (Amersham Corp. or DuPont-New England Nuclear) binding was carried out in 670 μl of binding buffer comprising, in final concentrations, 10 mM TES-Tris (pH 7.4), 0.5 mM EDTA, 5.0 mM MgCl2 and 5.0 mM Na2 HPO4 (hereinafter "binding buffer") and 50 nM ouabain containing ^3 H-ouabain tracer, and including the unknown sample. Binding was initiated by addition of 0.1-2 μg of purified (Na^+ +K^+)ATPase and the reaction performed for 2 hr at 37° C. […] Trapped ^3 H-ouabain was determined by scintillation counting, following 12 hr of soaking the filters in 4.0 ml of Beckman Ready Protein ™ scintillation cocktail (Beckman, Palo Alto, Calif.). […] All binding data were corrected for quench, and specific binding was expressed as pmol/mg of enzyme protein. […]

[3] = target: T1, (Na^+ +K^+)ATPase; assay: Inhibition of (Na^+ +K^+)ATPase activity (coupled optical assay); assay type: biochemical, dog; settings: purified dog kidney enzyme, 37° C.
Procedure: as §1
The inhibition of (Na^+ +K^+)ATPase was carried out as described above.

[4] = tested on: left atria from guinea pigs; assay: Inotropic properties in left atria from guinea pigs; design: species or system guinea pig
Procedure: Atria were incubated at 37° C. in phosphate buffered saline comprising 130 mM NaCl, 5.4 mM KCl, 1.8 mM MgCl2, 0.4 mM NaH2 PO4, 19 mM NaHCO3 and 5.4 g of glucose (pH 7.3-7.4), and gassed with 95% O2 /5% CO2. Tissues were stimulated at 1 Hz with twice threshold square pulses (0.8 to 1.0 V) of 0.7 to 1.2 msec duration. Resting tension was optimized for maximum isometric force generation. Control records were obtained once the phasic force was stabilized. […] For comparison, 200 nM plant ouabain evoked an inotropic response of 311±41% (N=4 experiments) which returned to normal with a half-time of approximately 5 min upon washout.

[5] = tested on: rings of aorta from guinea pigs; assay: Vasoactive properties in rings of aorta from guinea pigs; design: species or system guinea pig
Procedure: The aortic rings were incubated at 37° C. in phosphate buffered saline. The rings were submaximally contracted for 3 to 7 min, every 35 min, with 0.2 or 1.0 μM histamine. […] The apparent half-time for washout of the augmented tension response in the presence of plant ouabain was also much greater than 60 min.

[6] = Table 1, polyclonal anti-ouabain antisera

| Molecule | cross-reactivity (relative to ouabain) [1, 6] | other results |
| --- | --- | --- |
| Atrial natriuretic peptide (SLRRSSCFGGRMDRIGAQSGLGCNSFRY; ends and bridges not checked; cysteine pairing not given here; UniProt P01160 124-151, looked up) | None detected | – |
| C[C@@H]1O[C@@H](O[C@H]2C[C@@H](O)[C@]3(CO)[C@H]4[C@H](O)C[C@]5(C)[C@@H](C6=CC(=O)OC6)CC[C@]5(O)[C@@H]4CC[C@]3(O)C2)[C@H](O)[C@H](O)[C@H]1O [^3 H-ouabain] | – | ^3 H-ouabain bound (typical values) [2]: 75-85 pmol/mg of enzyme protein |
| NC(=O)CC[C@@H]1NC(=O)[C@H](Cc2ccccc2)NC(=O)[C@H](Cc2ccc(O)cc2)NC(=O)[C@@H](N)CSSC[C@@H](C(=O)N2CCC[C@H]2C(=O)N[C@@H](CCCN=C(N)N)C(=O)NCC(N)=O)NC(=O)[C@H](CC(N)=O)NC1=O [Arginine vasopressin] | None detected | – |
| C[C@]12CC[C@@H]3c4ccc(O)cc4CC[C@H]3[C@@H]1CC[C@@H]2O [β-estradiol] | None detected | – |
| C[C@]12CC[C@H](OS(=O)(=O)O)CC1=CC[C@@H]1[C@@H]2CC[C@]2(C)C(=O)CC[C@@H]12 [Dehydroisoandrosterone-3-sulfate] | None detected | – |
| CC(=O)O[C@]1(C(C)=O)CC[C@H]2[C@@H]3C=C(Cl)C4=CC(=O)CC[C@]4(C)[C@H]3CC[C@@]21C [Chlormadinone acetate] | None detected | – |
| Angiotensin I (DRVYIHPFHL; Angiotensin-1; UniProt P01019 25-34, looked up) | None detected | – |
| C[C@]12C[C@@H](O)[C@H]3[C@@H](CC[C@]4(O)C[C@@H](O)C[C@@H](O)[C@]34CO)[C@@]1(O)CC[C@@H]2C1=CC(=O)OC1 [Ouabagenin] | 40% | – |
| CC(C)CCC[C@@H](C)[C@H]1CC[C@H]2[C@@H]3CC=C4C[C@@H](O)CC[C@]4(C)[C@H]3CC[C@]12C [Cholesterol] | None detected | – |
| C[C@]12CC[C@H]3[C@@H](CCC4=CC(=O)CC[C@@]43C)[C@@H]1CC[C@@H]2C(=O)CO [Deoxycorticosterone] | 0.0046% | – |
| C[C@]12CC[C@H](O)CC1=CC[C@@H]1[C@@H]2CC[C@]2(C)C(=O)CC[C@@H]12 [Dehydroisoandrosterone] | None detected | – |
| C[C@]12CC[C@H]3[C@@H](CCC4=CC(=O)CC[C@@]43C)[C@@H]1CC[C@@H]2O [Testosterone] | – | cross-reactivity (relative to ouabain) ([1]; Table 1, printed without unit): 0.0042 |
| CC(=O)O[C@H]1C[C@H](O[C@H]2[C@@H](O)C[C@H](O[C@H]3[C@@H](O)C[C@H](O[C@H]4CC[C@@]5(C)[C@H](CC[C@@H]6[C@@H]5C[C@@H](O)[C@]5(C)[C@@H](C7=CC(=O)OC7)CC[C@]65O)C4)O[C@@H]3C)O[C@@H]2C)O[C@H](C)[C@H]1O[C@@H]1O[C@H](CO)[C@@H](O)[C@H](O)[C@H]1O [Lanatoside C] | 2.49% | – |
| C[C@@H]1O[C@@H](O[C@H]2C[C@@H](O)[C@]3(CO)[C@H]4[C@H](O)C[C@]5(C)[C@@H](C6=CC(=O)OC6)CC[C@]5(O)[C@@H]4CC[C@]3(O)C2)[C@H](O)[C@H](O)[C@H]1O [ouabain] | – | (Na^+ +K^+)ATPase activity ouabain-inhibitable [3]: 99%; activation at 0.2 µM ([4]; Cavia porcellus, read-out: inotropic response): 311 ± 41%; apparent half-time for washout of the inotropic response ([4]; upon washout): approximately 5 min; effect on baseline tension ([5]; 170 nM human ouabain, 200 nM plant ouabain): did not affect baseline tension; activity at 0.2 µM ([5]; Cavia porcellus, read-out: histamine-evoked tension, % of control): 146 ± 16%; apparent half-time for washout of the augmented tension response ([5]; upon washout): greater than 60 min |
| CC(=O)[C@H]1CC[C@H]2[C@@H]3CCC4=CC(=O)CC[C@]4(C)[C@H]3CC[C@]12C [Progesterone] | 0.0011% | – |
| C[C@H]1O[C@@H](O[C@H]2[C@@H](O)C[C@H](O[C@H]3[C@@H](O)C[C@H](O[C@H]4CC[C@@]5(C)[C@H](CC[C@@H]6[C@@H]5C[C@@H](O)[C@]5(C)[C@@H](C7=CC(=O)OC7)CC[C@]65O)C4)O[C@@H]3C)O[C@@H]2C)C[C@H](O)[C@@H]1O [Digoxin] | 5.2% | – |
| C[C@]12CCC(=O)C=C1CC[C@@H]1[C@@H]2[C@@H](O)C[C@@]2(C)[C@H]1CC[C@]2(O)C(=O)CO [Hydrocortisone] | None detected | – |
| C[C@]12C[C@H](O)[C@H]3[C@@H](CCC4=CC(=O)CC[C@@]43C)[C@@H]1CC[C@@H]2C(=O)CO [Corticosterone] | 0.0035% | – |
| O=C(O)CC(O)(CC(=O)O)C(=O)O [Citrate] | None detected | – |
| Angiotensin II | None detected | – |
| C[C@H]1O[C@@H](O[C@H]2[C@@H](O)C[C@H](O[C@H]3[C@@H](O)C[C@H](O[C@H]4CC[C@@]5(C)[C@H](CC[C@@H]6[C@@H]5CC[C@]5(C)[C@@H](C7=CC(=O)OC7)CC[C@]65O)C4)O[C@@H]3C)O[C@@H]2C)C[C@H](O)[C@@H]1O [Digitoxin] | 28% | – |
| C[C@@H]1O[C@@H](O[C@H]2C[C@@H](O)[C@]3(CO)[C@H]4[C@H](O)C[C@]5(C)[C@@H](C6COC(=O)C6)CC[C@]5(O)[C@@H]4CC[C@]3(O)C2)[C@H](O)[C@H](O)[C@H]1O (stereo partly drawn) [Dihydroouabain] | 0.16% | – |
| C[C@]12CCC(=O)C=C1CC[C@@H]1[C@@H]2[C@@H](O)C[C@]2(C=O)[C@@H](C(=O)CO)CC[C@@H]12 [Aldosterone] | 0.012% | – |
| C[C@]12CC[C@H]3[C@@H](CC[C@]4(O)C[C@@H](O)CC[C@]34C=O)[C@@]1(O)CC[C@@H]2C1=CC(=O)OC1 [Strophanthidin] | 66% | – |
| B1 | None detected | – |

From patent US5164296A, “Assay methods involving ouabain” (priority 1990, dated 1992)
